Assay results taken from ChEMBL document CHEMBL5143640, “Diverse Sesquiterpenoids and Polyacetylenes from Atractylodes lancea and Their Anti-Osteoclastogenesis Activity” (J Nat Prod, 2022).

What was measured:
[1] = test system: BMDM; test: Cytotoxicity against C57BL/6 mouse bone marrow macrophages assessed as reduction in cell viability at 10 uM incubated for 48 hrs in presence of M-CSF by CCK8 assay; type: toxicity, cell-based
[2] = test system: BMDM; test: Anti-osteoclastogensis activity C57BL/6 mouse bone marrow macrophages assessed as inhibition of RANKL-induced osteoclastogenesis by measuring osteoclasts number at 1 to 10 uM and measured after 5 days in presence of M-CSF by TRAP staining based assay; type: functional, cell-based; conditions: dose 1-10 µM, time 5.0 day, DDE = dose-dependent effect
[3] = Anti-osteoclastogensis activity C57BL/6 mouse bone marrow macrophages assessed as inhibition of RANKL-induced osteoclastogenesis and measured after 5 days in presence of M-CSF by TRAP staining based assay; type: functional, cell-based; conditions: bmdm
[4] = test system: BMDM; test: Anti-osteoclastogensis activity C57BL/6 mouse bone marrow macrophages assessed as inhibition of RANKL-induced osteoclastogenesis by measuring osteoclasts size at 1 to 10 uM and measured after 5 days in presence of M-CSF by TRAP staining based assay; type: functional, cell-based; conditions: dose 1-10 µM, time 5.0 day, DDE = dose-dependent effect

Row | SMILES | Activity [1] | Activity [2] | IC50 [3] [nM] | Activity [4]
1 | OC/C=C/C#CC#C/C=C/c1ccco1 | Non-Toxic | Dde | 640 | Dde
2 | CC(=O)OCCC(/C=C/C=C/C#CC#C/C=C/CO)OC(C)=O (stereo not drawn) | Non-Toxic | Dde | 1300 | Dde
